Experimental data from ChEMBL document CHEMBL1201862, “PubChem BioAssay data set” (2004).
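Cells were grown in 96-well plates and exposed to each compound for 48 hours at five concentrations; endpoints were interpolated linearly between bracketing concentrations, or set to the highest concentration if not reached. GI50 marks 50% less growth.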 Calls of active or inactive are those of the source. Cut-off read from the data, not from the text of the source: active = GI50 up to about 1.1 µM and inactive = higher.

Columns and labels:
Test in all cases: DTP human tumour cell line panel, 48 h
A498 = system: A498
HOP-62 = system: HOP-62
HOP-92 = system: HOP-92
HT-29 = system: HT-29
KM12 = system: KM12
LOX IMVI = system: LOX IMVI
MDA-MB-435 = system: MDA-MB-435
MOLT-4 = system: MOLT-4
Malme-3M = system: Malme-3M
NCI-H23 = system: NCI-H23
NCI-H522 = system: NCI-H522
OVCAR-3 = system: OVCAR-3
OVCAR-4 = system: OVCAR-4
OVCAR-8 = system: OVCAR-8
SK-MEL-2 = system: SK-MEL-2
SK-MEL-5 = system: SK-MEL-5
SNB-75 = system: SNB-75
UACC-62 = system: UACC-62

Row | Structure (SMILES) | GI50 (A498) | GI50 (HOP-62) | GI50 (HOP-92) | GI50 (HT-29) | GI50 (KM12) | GI50 (LOX IMVI) | GI50 (MDA-MB-435) | GI50 (MOLT-4) | GI50 (Malme-3M) | GI50 (NCI-H23) | GI50 (NCI-H522) | GI50 (OVCAR-3) | GI50 (OVCAR-4) | GI50 (OVCAR-8) | GI50 (SK-MEL-2) | GI50 (SK-MEL-5) | GI50 (SNB-75) | GI50 (UACC-62)
1 | O=C1CCC(NC(=O)c2ccccc2)C(=O)N1 (stereo not given) | > 100 µM (inactive) | > 100 µM (inactive) | > 100 µM (inactive) | > 100 µM (inactive) | > 100 µM (inactive) | > 100 µM (inactive) | > 100 µM (inactive) | 2.97 µM (inactive) | > 100 µM (inactive) | > 100 µM (inactive) | > 100 µM (inactive) | > 100 µM (inactive) | > 100 µM (inactive) | > 100 µM (inactive) | > 100 µM (inactive) | > 100 µM (inactive) | > 100 µM (inactive) | > 100 µM (inactive)
2 | CCN(CC)C(=O)CCN1CC1 | > 10 µM (inactive) | > 10 µM (inactive) | > 10 µM (inactive) | > 10 µM (inactive) | > 10 µM (inactive) | > 10 µM (inactive) | > 10 µM (inactive) | > 10 µM (inactive) | > 10 µM (inactive) | > 10 µM (inactive) | > 10 µM (inactive) | > 10 µM (inactive) | > 10 µM (inactive) | > 10 µM (inactive) | > 10 µM (inactive) | > 10 µM (inactive) | > 10 µM (inactive) | > 10 µM (inactive)
3 | NC12Oc3cc(O)cc(O)c3C1(c1ccc(Cl)cc1)c1c(O)cc(O)cc1O2 (stereo not given) | > 100 µM (inactive) | 68.9 µM (inactive) | 25.9 µM (inactive) | 35.4 µM (inactive) | > 100 µM (inactive) | 57.4 µM (inactive) | 46.8 µM (inactive) | 27.9 µM (inactive) | 40.6 µM (inactive) | 46.9 µM (inactive) | 24.7 µM (inactive) | 47.6 µM (inactive) | 27.5 µM (inactive) | > 100 µM (inactive) | 36.6 µM (inactive) | 37.5 µM (inactive) | 89.1 µM (inactive) | 42 µM (inactive)
4 | COc1ccc2nc3c([N+](=O)[O-])ccc4c3c(c2c1)N=CN4CCCN(C)C | 5.6 µM (inactive) | 1.2 µM (inactive) | 1.99 µM (inactive) | 0.57 µM (active) | 1.24 µM (inactive) | 2.01 µM (inactive) | 2.54 µM (inactive) | 0.23 µM (active) | 6.3 µM (inactive) | 4.27 µM (inactive) | 1.34 µM (inactive) | 2.91 µM (inactive) | 1.65 µM (inactive) | 1.3 µM (inactive) | 7.71 µM (inactive) | 3.24 µM (inactive) | 2.67 µM (inactive) | 6.24 µM (inactive)
5 | Oc1cc(Cl)cc2cccnc12 | 11.5 µM (inactive) | > 35 µM (inactive) | 3.25 µM (inactive) | 9.31 µM (inactive) | 4.78 µM (inactive) | 0.625 µM (active) | 3.52 µM (inactive) | 0.465 µM (active) | 3.02 µM (inactive) | 1.29 µM (inactive) | 0.348 µM (active) | 0.306 µM (active) | 0.411 µM (active) | 0.528 µM (active) | 5.92 µM (inactive) | 0.902 µM (active) | 17.2 µM (inactive) | 1.01 µM (active)
6 | Cc1ccc(CN2CCN(Cc3ccc(C)o3)C(C)C2)o1 (stereo not given) | > 100 µM (inactive) | > 100 µM (inactive) | > 100 µM (inactive) | > 100 µM (inactive) | > 100 µM (inactive) | > 100 µM (inactive) | > 100 µM (inactive) | > 100 µM (inactive) | > 100 µM (inactive) | > 100 µM (inactive) | > 100 µM (inactive) | > 100 µM (inactive) | > 100 µM (inactive) | > 100 µM (inactive) | > 100 µM (inactive) | > 100 µM (inactive) | > 100 µM (inactive) | > 100 µM (inactive)
7 | N#Cc1c(-c2ccc(Cl)cc2)cc(-c2nc3ccccc3[nH]2)nc1N | 8.85 µM (inactive) | 14.4 µM (inactive) | 11 µM (inactive) | 9.16 µM (inactive) | 10 µM (inactive) | 10.2 µM (inactive) | 5.43 µM (inactive) | 2.92 µM (inactive) | 16.6 µM (inactive) | 14.2 µM (inactive) | 13.7 µM (inactive) | 12.5 µM (inactive) | 18.6 µM (inactive) | 13 µM (inactive) | 12.6 µM (inactive) | 6.67 µM (inactive) | 10.8 µM (inactive) | 7.66 µM (inactive)
8 | COCC1OC(OC2C3=C(C(C)C)CCC3(C)/C=C3\C(CCC3(O)COC)C(C)C2O)C(O)C2OC3OC12OC3(C)C1CO1 (stereo not given) | 44 µM (inactive) | 89.5 µM (inactive) | 17.2 µM (inactive) | 34.8 µM (inactive) | 52.8 µM (inactive) | 22.5 µM (inactive) | 31 µM (inactive) | 27.6 µM (inactive) | 34.7 µM (inactive) | 90.2 µM (inactive) | 22.9 µM (inactive) | 26.4 µM (inactive) | 25.5 µM (inactive) | 48 µM (inactive) | 83.6 µM (inactive) | 18 µM (inactive) | 21.7 µM (inactive) | 21.9 µM (inactive)
9 | C=C1CC(C)(COc2ccc3ccc(=O)oc3c2)OC1=O (stereo not given) | 7.45 µM (inactive) | 16 µM (inactive) | 1.12 µM (inactive) | 1.57 µM (inactive) | 4.07 µM (inactive) | 1.35 µM (inactive) | 2.12 µM (inactive) | 1.18 µM (inactive) | 1.01 µM (active) | 2.29 µM (inactive) | 0.733 µM (active) | 3.72 µM (inactive) | 2.84 µM (inactive) | 4.72 µM (inactive) | 1.31 µM (inactive) | 2.34 µM (inactive) | 9.57 µM (inactive) | 2.94 µM (inactive)
10 | O=S(=O)(Cc1nc2ccccc2s1)c1nc2ccccc2s1 | 19.2 µM (inactive) | 49.3 µM (inactive) | 12.9 µM (inactive) | 18.2 µM (inactive) | 18.2 µM (inactive) | 10 µM (inactive) | 15.2 µM (inactive) | 17.6 µM (inactive) | 11.3 µM (inactive) | 15.6 µM (inactive) | 15.5 µM (inactive) | 14.4 µM (inactive) | 16.9 µM (inactive) | 19.4 µM (inactive) | 17.4 µM (inactive) | 12.9 µM (inactive) | 18.3 µM (inactive) | 16 µM (inactive)
11 | C=C1C(=O)O[C@@]23C1CC[C@@H](C)C2CC[C@@]1(C)OC31 (stereo not given in full) | 18.2 µM (inactive) | 10 µM (inactive) | 8.79 µM (inactive) | 5.86 µM (inactive) | 12.8 µM (inactive) | 11.5 µM (inactive) | 4.25 µM (inactive) | 3.61 µM (inactive) | 2.08 µM (inactive) | 7.18 µM (inactive) | 6.32 µM (inactive) | 3.27 µM (inactive) | 8.91 µM (inactive) | 16.9 µM (inactive) | 5.58 µM (inactive) | 3.24 µM (inactive) | 3.13 µM (inactive) | 12.1 µM (inactive)
12 | CC(=O)OC(C)(C)CCC(=O)[C@](C)(O)[C@H]1[C@H](O)C[C@@]2(C)[C@@H]3CC=C4C(C)=C(OC5OC(CO)C(O)C(O)C5O)C(=O)C[C@@H]4[C@]3(C)C(=O)C[C@]12C (stereo not given in full) | > 100 µM (inactive) | > 100 µM (inactive) | > 100 µM (inactive) | > 100 µM (inactive) | > 100 µM (inactive) | > 100 µM (inactive) | > 100 µM (inactive) | > 100 µM (inactive) | > 100 µM (inactive) | > 100 µM (inactive) | > 100 µM (inactive) | > 100 µM (inactive) | > 100 µM (inactive) | > 100 µM (inactive) | > 100 µM (inactive) | > 100 µM (inactive) | > 100 µM (inactive) | > 100 µM (inactive)
13 | CC(=O)c1ccc(NCN2C(=O)c3ccccc3C2=O)cc1 | > 100 µM (inactive) | > 100 µM (inactive) | > 100 µM (inactive) | > 100 µM (inactive) | > 100 µM (inactive) | > 100 µM (inactive) | > 100 µM (inactive) | > 100 µM (inactive) | > 100 µM (inactive) | > 100 µM (inactive) | 97.5 µM (inactive) | > 100 µM (inactive) | > 100 µM (inactive) | > 100 µM (inactive) | > 100 µM (inactive) | > 100 µM (inactive) | 30.5 µM (inactive) | > 100 µM (inactive)
14 | COc1cc2c(cc1OCCCC(=O)Nc1cc(C(=O)Nc3cc(C(=O)Nc4cc(C(=O)NCCCN(C)C)n(C)n4)n(C)c3)n(C)c1)N=CC1CCCN1C2=O (stereo not given) | 29.2 µM (inactive) | 25.8 µM (inactive) | 21.3 µM (inactive) | 20.3 µM (inactive) | 24 µM (inactive) | 18.7 µM (inactive) | 21 µM (inactive) | 4.01 µM (inactive) | 18.7 µM (inactive) | 25.8 µM (inactive) | 2.28 µM (inactive) | 40.3 µM (inactive) | 20.1 µM (inactive) | 33 µM (inactive) | 23.1 µM (inactive) | 19.5 µM (inactive) | 23.9 µM (inactive) | 19.1 µM (inactive)
15 | CC(=O)/C=C/C1=C(C)CCCC1(C)CC(C)C (stereo not given) | 24.2 µM (inactive) | 57.9 µM (inactive) | 6.73 µM (inactive) | 28 µM (inactive) | 34.8 µM (inactive) | 18.6 µM (inactive) | 32.5 µM (inactive) | 17.7 µM (inactive) | 30.6 µM (inactive) | 24.8 µM (inactive) | 18.4 µM (inactive) | 26.5 µM (inactive) | 63.8 µM (inactive) | 31.3 µM (inactive) | 19.6 µM (inactive) | 16.9 µM (inactive) | 21.6 µM (inactive) | 22.4 µM (inactive)
